In brackets after ≈: the same amount, converted by molar mass. Several values for one entry are separate records, joined by “and”; a condition that tells them apart may be missing. Equal entries are not always repeated. Where two headings read alike, the source gives them in different places. Where no end group is shown, it is not given here.

These results are taken from US12281205B2, “Modified antibacterial compositions and methods” (priority 2016, dated 2025).

In data set [1] the test system is MDR A. baumannii (FADDI-AB156). Kind of data set: Antibiogram of MDR A. baumannii. Format: cell-based, Acinetobacter baumannii. The following applies: for Susceptibility: CLSI resistant breakpoints.
Data set [2] relates to MDR P. aeruginosa (FADDI-PA067). The data set can be described thus: Antibiogram of MDR P. aeruginosa. It is filed as cell-based, Pseudomonas aeruginosa. The following applies: for Susceptibility: CLSI resistant breakpoints.
In data set [3] the test system is CMDR A. baumannii (FADDI-AB156). Kind of data set: Mouse peritonitis model. Format: in vivo, C57BL/6 mice. The conditions noted are these: 24 h infection.
Data set [4] deals with E. coli. The data set can be described thus: Minimum inhibitory concentration (MIC), broth microdilution. It is filed as cell-based. The following applies: Escherichia coli.
Procedure: The MICs of the PAMAM dendrimers were determined using a broth microdilution method. After the preparation of a dilution series of each compound and the addition of bacterial cells (Note: steps identical to that taken for the measurement of MBC), the optical density readings of each well at 630 nm were measured as a function of time using a microplate reader (Multiskan Ascent, Pathtech Pty. Ltd.). Positive controls containing cells alone were incorporated. Optical density was plotted against polymer concentration and linear regression analysis was used to determine the lowest concentration (MIC) at which the optical density reading becomes zero. A minimum of two independent experiments (biological replicates) of the assay were conducted and two technical replicates were used in each experiment for each bacterium, polymer, and concentration. Data is expressed as mean±standard deviation (SD) of the biological replicates and analysed using student's t-test.
Data set [5] deals with sheep red blood cells (RBCs). The data set can be described thus: Hemolysis assay.
Procedure: Fresh sheep red blood cells (RBCs) were diluted 1 in 20 in PBS (pH 7.4), pelleted by centrifugation, and washed three times in PBS (1000 g, 10 min). The RBCs were counted using a cell counter (Coulter Particle Counter Z series, Beckman Coulter) and diluted to a final concentration of 2×10^7 cells/mL. 100 μL aliquots of the RBC solution were seeded into a V-bottomed 96-well plate containing 100 μL of test compound solution of varying concentrations (4-256 μg/mL) and incubated in a humidified atmosphere containing 5% CO2 at 37° C. for 2 h. Following incubation, the 96-well plate was centrifuged (1000 g, 10 min) and aliquots (100 μL) of supernatant were transferred to a flat-bottomed 96-well plate. Hemoglobin release upon lysis of the RBCs was monitored at 405 nm using a microplate reader (PerkinElmer 1420 Multilabel Counter VICTOR^3). Positive and negative controls for hemolysis were taken as RBC lysed with 0.5% Triton X-100 (1:1 v/v) and RBC suspension in PBS, respectively. The percentage of hemolysis was calculated using the following formula:
The percentage hemolysis was plotted against peptide polymer concentration and linear regression analysis was used to determine the hemolytic concentration needed to lyse 50% (HC50) of RBCs. Two independent runs of the assay were conducted and two replicates were used in each run for each compound and concentration.
Fresh sheep red blood cells (RBCs) were diluted 1 in 20 in PBS (pH 7.4), pelleted by centrifugation, and washed three times in PBS (1000 g, 10 min). The RBCs were counted using a cell counter (Coulter Particle Counter Z series, Beckman Coulter) and diluted to a final concentration of 2×10^7 cells/mL. 100 μL aliquots of the RBC solution were seeded into a V-bottomed 96-well plate containing 100 μL of polypeptide solution of varying concentrations (4-256 μg/mL) and incubated in a humidified atmosphere containing 5% CO2 at 37° C. for 2 h. Following incubation, the 96-well plate was centrifuged (1000 g, 10 min) and aliquots (100 μL) of supernatant were transferred to a flat-bottomed 96-well plate. Hemoglobin release upon lysis of the RBCs was monitored at 405 nm using a microplate reader (PerkinElmer 1420 Multilabel Counter VICTOR3). Positive and negative controls for hemolysis were taken as RBC lysed with 0.5% Triton X-100 (1:1 v/v) and RBC suspension in PBS, respectively. The percentage of hemolysis was calculated using the following formula:
The percentage hemolysis was plotted against polypeptide concentration and linear regression analysis was used to determine the hemolytic concentration needed to lyse 50% (HC50) of RBCs. Two independent runs of the assay were conducted and two replicates were used in each run for each polypeptide and concentration.
Data set [6] concerns E. coli (ATCC 25922). The data set can be described thus: Minimum bactericidal concentration (MBC). It is filed as cell-based, Escherichia coli. On the set-up: unit not given here. The following applies: MHB.
Text: (§1) The number of colony-forming units (CFU) was counted and expressed as CFU/mL. Positive controls consisting of cells without any treatment were used.
as §1

In data set [7] the test system is P. aeruginosa (ATCC 47085). Kind of data set: Minimum bactericidal concentration (MBC). It is filed as cell-based, Pseudomonas aeruginosa. On the set-up: unit not given here. The following applies: MHB. As for the experimental part: (§2) A dilution series of each compound was made by diluting test compound stock in media to a desired range of concentrations and a final volume of 100 μL in each well of a 96-well plate. Bacterial cells (which gave an optical density reading of ˜0.7 at 650 nm for E. coli, K. pneumoniae, P. aeruginosa, and S. aureus, ˜0.5 at 650 nm for A. baumannii and ˜1.8 at 650 nm for S. mutans) were diluted to 2.5×10^6 cells/mL in media and 100 μL of the bacteria solution was added to each well. The 96-well plate was then incubated at 37° C. for 90 min. For each well, microbial solution was diluted with saline (0.9% NaCl solution) using an appropriate dilution factor and placed on an agar plate (identical to that used for bacteria culture). For E. coli, K. pneumoniae, A. baumannii, and S. aureus, the agar plates were incubated overnight at room temperature, and then at 37° C. with aeration for 2 h. For P. aeruginosa and S. mutans, the agar plates were incubated at 37° C., with the former being incubated overnight with aeration and the latter in an anaerobic chamber for 48 h. The number of colony-forming units (CFU) was counted and expressed as CFU/mL. Positive controls consisting of cells without any treatment were used. […] Data is expressed as mean±standard deviation (SD) of the biological replicates and analysed using student's t-test. […]

For data set [8], the system named is K. pneumoniae (ATCC 13883). Kind of data set: Minimum bactericidal concentration (MBC). Format: cell-based, Klebsiella pneumoniae. The arrangement: unit not given here. The conditions noted are these: MHB. On the procedure: as §2
Data set [9] relates to A. baumannii (ATCC 19606). The data set can be described thus: Minimum bactericidal concentration (MBC). It is filed as cell-based, Acinetobacter baumannii. On the set-up: unit not given here. The conditions noted are these: MHB. On the procedure: as §2
Where [10] appears, read: concentration giving 50% hemolysis, 2 h.

As for `NCC[C@H](O)C(=O)N[C@@H]1C[C@H](N)[C@@H](O[C@H]2O[C@H](CN)[C@@H](O)[C@H](O)[C@H]2O)[C@H](O)[C@H]1O[C@H]1O[C@H](CO)[C@@H](O)[C@H](N)[C@H]1O` [Amikacin], in data set [1], the Susceptibility entry is listed as “Resistant”.
In the case of `CC1(C)S[C@@H]2[C@H](NC(=O)[C@H](N)c3ccccc3)C(=O)N2[C@H]1C(=O)O` [Ampicillin], the MIC in data set [1] (Acinetobacter baumannii) was at least 91.6 µM. Further, the Susceptibility result in data set [1] is recorded as “Resistant”.
On to `C[C@H]1[C@H](NC(=O)/C(=N\OC(C)(C)C(=O)O)c2csc(N)n2)C(=O)N1S(=O)(=O)O` [Aztreonam], for which the Susceptibility result in data set [2] is on record as “Resistant”.
`Cc1nnc(SCC2=C(C(=O)O)N3C(=O)[C@@H](NC(=O)Cn4cnnn4)[C@H]3SC2)s1` [Cefazolin]: the Susceptibility entry in data set [1] is reported as “Resistant”.
As for `CO/N=C(\C(=O)N[C@@H]1C(=O)N2C(C(=O)[O-])=C(C[N+]3(C)CCCC3)CS[C@H]12)c1csc(N)n1` [Cefepime], in [1], the Susceptibility result was “Resistant”.
As to `CO[C@@]1(NC(=O)Cc2cccs2)C(=O)N2C(C(=O)O)=C(COC(N)=O)CS[C@@H]21` [Cefoxitin], in [1], the Susceptibility result is reported as “Resistant”.
As for `CC(C)(O/N=C(\C(=O)N[C@@H]1C(=O)N2C(C(=O)[O-])=C(C[n+]3ccccc3)CS[C@H]12)c1csc(N)n1)C(=O)O` [Ceftazidime], the Susceptibility result in [2] and in data set [1] was “Resistant” throughout.
For `CO/N=C(\C(=O)N[C@@H]1C(=O)N2C(C(=O)O)=C(CSc3nc(=O)c(=O)[nH]n3C)CS[C@H]12)c1csc(N)n1` [Ceftriaxone], the Susceptibility result in [1] is listed as “Resistant”.
`C[C@@H](O)[C@H]1C(=O)N2C(C(=O)O)=C(SCCN=CN)C[C@H]12` [Imipenem]: the MIC in data set [1] (Acinetobacter baumannii) is at least 214 µM. Further, the survival in data set [3] is reported as 50%.
Regarding `C[C@@H](O)[C@H]1C(=O)N2C(C(=O)O)=C(S[C@@H]3CN[C@H](C(=O)N(C)C)C3)[C@H](C)[C@H]12` [Meropenem], in data set [1], the Susceptibility result is recorded as “Resistant”.
For the molecule `CCn1cc(C(=O)O)c(=O)c2ccc(C)nc21` [Nalidixic Acid], in data set [1], the Susceptibility result is “Resistant”.
Regarding `CCn1cc(C(=O)O)c(=O)c2cc(F)c(N3CCNCC3)cc21` [Norfloxacin], the Susceptibility entry in data set [1] is listed as “Resistant”.
Regarding `CCN1CCN(C(=O)N[C@@H](C(=O)N[C@@H]2C(=O)N3[C@@H]2SC(C)(C)[C@@H]3C(=O)O)c2ccccc2)C(=O)C1=O` [Piperacillin], the Susceptibility entry in data set [2] is reported as “Resistant”.
In the case of `CC1(C)S[C@@H]2[C@H](NC(=O)[C@H](C(=O)O)c3ccsc3)C(=O)N2[C@H]1C(=O)O` [Ticarcillin], the Susceptibility entry in [2] was “Resistant”.
Take `NC[C@H]1O[C@H](O[C@H]2[C@H](O)[C@@H](O[C@H]3O[C@H](CO)[C@@H](O)[C@H](N)[C@H]3O)[C@H](N)C[C@@H]2N)[C@H](N)C[C@@H]1O` [Tobramycin]: the Susceptibility result in data set [2] and in [1] was “Resistant” throughout. The minimal inhibitory concentration (MIC) in [1] (Acinetobacter baumannii) was at least 34.2 µM.
For the molecule `COc1cc(Cc2cnc(N)nc2N)cc(OC)c1OC` [Trimethoprim], in data set [1], the Susceptibility entry is “Resistant”.
Turning to `C[C@H]1c2cccc(O)c2C(=O)C2=C(O)[C@]3(O)C(=O)C(C(N)=O)=C(O)[C@@H](N(C)C)[C@@H]3[C@@H](O)[C@@H]21` [doxycycline], in data set [4], 0.5 µg/mL (≈ 1.13 µM) was the least that counted as inhibitory (MIC).
In the case of Amoxicillin/Clavulanic Acid, in data set [1], the MIC is recorded as at least 87.6 µM and the Susceptibility entry is reported as “Resistant”.
For Colistin Sulfate, in data set [2], the “Susceptibility, concentration in parentheses” value is above 110.8 µM and the Susceptibility result was “Resistant”. In addition, in data set [1], the minimal inhibitory concentration (MIC) came to 13.8 µM and the Susceptibility result is recorded as “Resistant”.
“GIGKFLHSAKKFGKAFVGEIMNS-NH2 [Magainin II]”: the HC50 in data set [5] (setting [10]) is 81.1 µM; in [5] (extrapolated from FIG. 59), 33 μg/mL and 81.1 μM.
For Gentamicin, the Susceptibility entry in data set [2] is reported as “Resistant”. In data set [1], the MIC is listed as at least 33.5 µM and the Susceptibility result is on record as “Resistant”.
Take “Ovispirin: antimicrobial peptide NH2- KNLRRIIRKIIHIIKKYG-COOH (H-KNLRRIIRKIIHIIKKYG-OH; also: SNAPP conjugate)”: the MBC in data set [6] worked out at 8.39 ± 0.44; in [7], 95.49 ± 9.73; in [8], 11.49 ± 4.86; in data set [9], 2.21 ± 0.88. Also, the concentration for 50% haemolysis (HC50) was 61.8 µM in [5] (setting [10]); 27 μg/mL and 61.8 μM in data set [5] (extrapolated from FIG. 59).
In the case of Piperacillin/Tazobactam, in data set [1], the MIC is listed as at least 247.3 µM and the Susceptibility result is listed as “Resistant”.
In the same order, the values of Ticarcillin/Clavulanic Aid are at least 333.0 µM and “Resistant”.
With Trimethoprim/Sulfamethoxazole, in data set [1], the MIC is given as at least 1102.2 µM and the Susceptibility entry is reported as “Resistant”.
